From patent US6716850B2, “Non-nucleoside reverse transcriptase inhibitors” (Medivir AB, priority 2001, dated 2004)
Read-outs that look alike come from different tables or passages of the source.

Experiments:
HIV-1IIIB (wild type) = assay: XTT assay in MT-4 cells infected with wild type HIV-1IIIB; type: cell-based
Method: Compounds of the invention are assayed for HIV activity, for example using multiple determinations with XTT in MT-4 cells (Weislow et al, J Nat Cancer Inst 1989, vol 81 no 8, 577 et seq), preferably including determinations in the presence of 40-50% human serum to indicate the contribution of protein binding. In short the XTT assay uses human T cell line MT4 cells grown in RPMI 1640 medium supplemented with 10% fetal calf serum (or 40-50% human serum as appropriate), penicillin and streptomycin seeded into 96 well microplates (2·10^4 cells/well) infected with 10-20 TCID50 per well of HIV-1IIIB (wild type) or mutant virus, such as those bearing RT lie 100, Cys 181 or Asn 103 mutations. Serially diluted test compounds are added to respective wells and the culture incubated at 37° C. in a CO2 enriched atmosphere and the viability of cells is determined at day five or six with XTT vital dye. Results are typically presented as ED50 μM.

[1] = target: T1, HIV-1 reverse transcriptase (Human immunodeficiency virus type 1 group M subtype B, UniProt P04585); assay: activity of separated optical isomers (test not stated); conditions: second eluting peak on chiral AGP column
T1 construct: active against reverse transcriptase, especially that of HIV-1

[2] = Human immunodeficiency virus 1, MT4, read-out: ED50
[3] = XTT assay, MT-4 cells, wild type HIV-1IIIB, read-out: ED50 (the source's name)

| Compound | EC50 (HIV-1IIIB (wild type); [2]) | activity of the more slowly eluting isomer, typically negative rotation [1] | EC50 (HIV-1IIIB (wild type); [3]) |
| --- | --- | --- | --- |
| N#Cc1ccc(NC(=O)NC2C3Sc4ccccc4C23)nc1 (racemic) [Example 43, (+/−)cis N-[1a,6b-dihydro-1H-benzo[b]cyclopropa[d]thien-1-yl]-N′-(5-cyano-2-pyridinyl)-urea] | 2 nM |  |  |
| O=C(Nc1ccc(Cl)cn1)N[C@H]1C2c3c(F)ccc(F)c3OC[C@H]21 (single isomer, unassigned; (-)) [Example 31, (−) cis-1-(5-Chloro-pyridin-2-yl)-3-(4,7-difluoro-1,1a,2,7b-tetrahydro-cyclopropa[c]chromen-1-yl)-urea] | 2.5 nM | particularly active |  |
| (+/−)-cis-1-(4,7-Difluoro-1,1a,2,7b-tetrahydro-cyclopropa[c]chromen-1-yl)-3-(5-ethynyl-pyridin-2-yl)-urea [Example 18] |  |  | 6 nM |
| O=C(Nc1ccc(Oc2ccccc2)cn1)N[C@@H]1[C@@H]2COc3c(F)ccc(F)c3[C@@H]21 (relative stereo) [Example 20, +/−cis-1-(4,7-Difluoro-1,1a,2,7b-tetrahydro-cyclopropa[c]chromen-1-yl)-3-(5-phenoxy-pyridin-2-yl)-urea] |  |  | 7 nM |
| N#Cc1ccc(NC(=O)NC2C3COc4c(Cl)ccc(F)c4C32)nc1 (racemic) [Example 7, (±)-cis-1-(5-Cyano-pyridin-2-yl)-3-(7-fluoro-4-chloro-1,1a,2,7b-tetrahydro-cyclopropa[c]chromen-1-yl)-urea] |  |  | 7 nM |
| N#Cc1ccc(NC(=O)N[C@@H]2[C@@H]3COc4c(Cl)ccc(Cl)c4[C@@H]32)nc1 [Example 33, +/−-cis-N-(5-cyano-2-pyridinyl)-N′-(4,7-dichloro-1,1a,2,7b-tetrahydrocyclopropa[c]chromen-1-yl)urea] | 9 nM |  |  |
| N#Cc1ccc(NC(=O)N[C@@H]2[C@@H]3COc4c(F)ccc(F)c4[C@@H]32)nc1 [Example 30, (−)-cis-1-(5-Cyano-pyridin-2-yl)-3-(4,7-difluoro-1,1a,2,7b-tetrahydro-cyclopropa[c]chromen-1-yl)-urea] | 3 nM | particularly active |  |
| (+/−)-cis-1-(5-Bromo-pyridin-2-yl)-3-(4,7-difluoro-1,1a,2,7b-tetrahydro-cyclopropa[c]chromen-1-yl)-urea [Example 19] |  |  | 10 nM |
| N#Cc1ccc(NC(=O)N[C@@H]2[C@@H]3COc4c(Br)ccc(F)c4[C@@H]32)nc1 [Example 24, cis-1-(4-Bromo-7-fluoro-1,1a,2,7b-tetrahydro-cyclopropa[c]chromen-1-yl)-3-(5-cyano-pyridin-2-yl)-urea] | 20 nM |  |  |
| (+/−)-cis-1-(5-Cyano-3-methyl-pyridin-2-yl)-3-(4,7-difluoro-1,1a,2,7b-tetrahydro-cyclopropa[c]chromen-1-yl)-urea [Example 16] |  |  | 6 nM |
| N#Cc1ccc(NC(=O)N[C@@H]2[C@@H]3COc4cc(F)cc(F)c4[C@@H]32)nc1 (relative stereo) [Example 23, 1-(5-Cyano-pyridin-2-yl)-3-(5,7-difluoro-1,1a,2,7b-tetrahydro-cyclopropa[c]chromen-1-yl)urea] | 7 nM |  |  |
